PubChem BioAssay (NCI)
“And” between values parts separate entries of the source, which are not always exact repeats. Equal entries are not always repeated.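 Grown in 96-well plates, cells were treated for 48 hours with each compound at five concentrations. Insufficient inhibition: endpoint recorded as highest concentration tested. The concentration for 50% growth inhibition is given as GI50. TGI is the concentration that stops growth completely.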

tested on: NCI-H460 lung; test: growth of human tumour cells (NCI), 48 h

`NC(N)=N/N=C(\c1nc2ccc([N+](=O)[O-])cc2[nH]c1=O)C(O)c1ccc([N+](=O)[O-])cc1` (stereo unspecified) and `O=C1OC(c2ccccc2)=N/C1=C\c1cccc2ccccc12` cannot be ordered by TGI: over 100 µM for the first, over 100 µM for the second.

`CCC[CH2][Sn]1([CH2]CCC)[O]CC(CN2CCCC2)[O]1` (stereo unspecified) and `C[C@@H]1CC(=O)C2CCCC1C2=O` (stereo partly specified) cannot be ordered by TGI: over 100 µM for the first, over 100 µM for the second.

`CC1(C)C(=O)N(CCCCCCN2C(=O)C(C)(C)c3ccccc32)c2ccccc21` and `c1ccc(CNn2nnc3ccccc32)cc1` cannot be ordered by TGI: over 100 µM for the first, over 100 µM for the second.

`NCCCCN(CCCN)/[N+]([O-])=N\O` and `CCOc1ccccc1NC(=O)CC(C(=O)OC)C(=O)C(=O)OC` (stereo unspecified) cannot be ordered by TGI: over 100 µM for the first, over 100 µM for the second.

`COC(=O)C1=C(C)N(NC(=O)OC(C)(C)C)C(=O)C1=P(c1ccccc1)(c1ccccc1)c1ccccc1` and `Cc1cccc(NC(=O)/C(=N\NC(C)(C)C)C2NC(=S)NC2=O)c1C` (stereo unspecified) cannot be ordered by TGI: over 100 µM for the first, over 100 µM for the second.

Compared with `CN(C)C(=O)c1cc2cnc(Nc3ccc(-c4csc5c(=S)cc(N6CCOCC6)oc45)cc3)nc2n1C1CCCC1`, `COC1=CC(=O)c2nc(-c3cccc(C)n3)[nH]c2C1=O` is lower in TGI: over 50 µM for the first, 35.2 µM for the second.

First: CCC[CH2][Sn]1([CH2]CCC)[O]CC(CN2CCCC2)[O]1 (stereo unspecified)
Second: CN(C)C(=O)c1cc2cnc(Nc3ccc(-c4csc5c(=S)cc(N6CCOCC6)oc45)cc3)nc2n1C1CCCC1
The GI50 of the first is 59-fold higher: 34.6 µM for the first, 0.585 µM for the second.

`COC1=CC(=O)c2nc(-c3cccc(C)n3)[nH]c2C1=O` showed a GI50 of 17.1 µM.

`COc1cc2c(c(OC)c1OC)-c1ccc(OC)c(=O)cc1[C@@H](NC(=O)c1ccccc1)CC2` was tested, and the GI50 was 0.00614 µM and < 0.0126 µM.

In the case of `COc1cccc2c1C(=O)c1c(O)c3c(c(O)c1C2=O)C[C@@](O)(C(C)=O)C[C@@H]3OC1OC(C)C(O)C(N)C1Br` (stereo partly specified), the TGI is reported as 0.115 µM and 0.118 µM.

tested on: OVCAR-4 ovarian; test: growth of human tumour cells (NCI), 48 h

Going from `Cc1nc(N)sc1C(=O)/C=C\c1ccc2c(c1)OCO2` to `COC1=CC(=O)c2nc(-c3cccc(C)n3)[nH]c2C1=O`, the TGI falls from over 100 µM to 50.3 µM.

`COc1cc(C(C)O)c[n+](CCc2c[nH]c3ccccc23)c1` (stereo unspecified) and `COc1ccccc1CCc1cc(OC)c(OC)c(OC)c1` cannot be ordered by TGI: over 100 µM for the first, over 100 µM for the second.

`CC1(C)SCc2nc3ncccc3n21` and `c1ccc(CNn2nnc3ccccc32)cc1` cannot be ordered by TGI: over 100 µM for the first, over 100 µM for the second.

Going from `Cn1c(=O)c(C(c2ccc([N+](=O)[O-])cc2)c2c(O)c3ccccc3n(C)c2=O)cc2ccccc21` (stereo unspecified) to `Cc1cccc(NC(=O)C(=O)C(C(=O)c2ccc3ccccc3c2)C2OC(=O)c3ccccc32)c1C` (stereo unspecified), the TGI falls from over 100 µM to 33.7 µM.

`Cc1cn(C2CC(O)C(CO)O2)c(=O)n2nnnc12` (stereo unspecified) and `O=C(O)C1OC(n2cc(F)c(=O)[nH]c2=O)CC1O` (stereo unspecified) cannot be ordered by TGI: over 100 µM for the first, over 100 µM for the second.

`COc1ccc(C(=O)C(C(=O)CCC(=O)Nc2cccc(Cl)c2)c2ccc(OC)cc2)cc1` (stereo unspecified) and `CCOC(=O)C1=C(C)N(NC(=O)Nc2ccccc2)C(=O)C1=P(c1ccccc1)(c1ccccc1)c1ccccc1` cannot be ordered by TGI: over 100 µM for the first, over 100 µM for the second.

`COc1cc(C=C2C(=O)NC(=O)NC2=O)cc(OC)c1OC` and `COc1cc2c(cc1OC)C(CC(=O)NN=C(C)C)NCC2` (stereo unspecified) cannot be ordered by TGI: over 100 µM for the first, over 100 µM for the second.

`Nn1c(=O)n(Cc2ccccc2)n(-c2ccccc2)c1=O` and `O=C1OC(c2ccccc2)=N/C1=C\c1cccc2ccccc12` cannot be ordered by TGI: over 100 µM for the first, over 100 µM for the second.

`Cc1ccc(C2=C(c3ccccc3)C(Br)(c3ccc(C)cc3)C(c3ccccc3)=C2c2ccc(C)cc2)cc1` and `COC(=O)C1=C(C)N(NC(=O)OC(C)(C)C)C(=O)C1=P(c1ccccc1)(c1ccccc1)c1ccccc1` cannot be ordered by TGI: over 100 µM for the first, over 100 µM for the second.

`N#CCN1C(=O)c2cccc3cc([N+](=O)[O-])cc(c23)C1=O` and `NC(N)=N/N=C(\c1nc2ccc([N+](=O)[O-])cc2[nH]c1=O)C(O)c1ccc([N+](=O)[O-])cc1` (stereo unspecified) cannot be ordered by TGI: over 100 µM for the first, over 100 µM for the second.

`O=C1CCN2C(=O)CCN12` and `C[C@@H]1CC(=O)C2CCCC1C2=O` (stereo partly specified) cannot be ordered by TGI: over 100 µM for the first, over 100 µM for the second.

`CC1CC[C@]2(C(=O)O)CCC3(C)C(=CC(=O)C4[C@@]5(C)CCC(=O)C(C)(C)C5CC[C@]43C)[C@@H]2[C@H]1C` (stereo partly specified) and `Cc1cccc(NC(=O)/C(=N\NC(C)(C)C)C2NC(=S)NC2=O)c1C` (stereo unspecified) cannot be ordered by TGI: over 100 µM for the first, over 100 µM for the second.

Going from `CC(C)C(Nc1c2ccccc2nc2ccccc12)C(=O)O` (stereo unspecified) to `CC1(C)C(=O)N(CCCCCCN2C(=O)C(C)(C)c3ccccc32)c2ccccc21`, the TGI rises from 85.3 µM to over 100 µM.

`COC(=O)/C(=N\Nc1nnc(C)n1N)C(C#N)c1ccc(Cl)cc1` (stereo unspecified) and `CCOc1ccccc1NC(=O)CC(C(=O)OC)C(=O)C(=O)OC` (stereo unspecified) cannot be ordered by TGI: over 100 µM for the first, over 100 µM for the second.

`CS/C(N)=N\NC(=O)CCC(=O)Nc1ccccc1C(F)(F)F` and `CC(=O)/C(C)=N/NC(=O)c1ccccc1O` cannot be ordered by TGI: over 100 µM for the first, over 100 µM for the second.

Compared with `CC(C)(C)c1ccc2c(c1)S(=O)(=O)Nc1ccccc1NS(=O)(=O)c1cc(C(C)(C)C)ccc1OCCOCCOCCO2`, `CN(C)C(=O)c1cc2cnc(Nc3ccc(-c4csc5c(=S)cc(N6CCOCC6)oc45)cc3)nc2n1C1CCCC1` is higher in TGI: 48 µM for the first, over 50 µM for the second.

`CC(=O)[O-].CCN(CC)c1ccc(C=NCCN=Cc2ccc(N(CC)CC)cc2[O-])c([O-])c1.[Mn+3]` and `NCCCCN(CCCN)/[N+]([O-])=N\O` cannot be ordered by TGI: over 100 µM for the first, over 100 µM for the second.

In the case of `CCC[CH2][Sn]1([CH2]CCC)[O]CC(CN2CCCC2)[O]1` (stereo unspecified), the TGI is reported as 28.5 µM.

Compared with `CC(=O)/C(C)=N/NC(=O)c1ccccc1O`, `COC1=CC(=O)c2nc(-c3cccc(C)n3)[nH]c2C1=O` is lower in GI50: over 100 µM for the first, 20.4 µM for the second.

First: CC(=O)[O-].CCN(CC)c1ccc(C=NCCN=Cc2ccc(N(CC)CC)cc2[O-])c([O-])c1.[Mn+3]
Second: CN(C)C(=O)c1cc2cnc(Nc3ccc(-c4csc5c(=S)cc(N6CCOCC6)oc45)cc3)nc2n1C1CCCC1
The GI50 of the first is 36-fold higher: 37.3 µM for the first, 1.03 µM for the second.

Compared with `CCC[CH2][Sn]1([CH2]CCC)[O]CC(CN2CCCC2)[O]1` (stereo unspecified), `COc1cccc2c1C(=O)c1c(O)c3c(c(O)c1C2=O)C[C@@](O)(C(C)=O)C[C@@H]3OC1OC(C)C(O)C(N)C1Br` (stereo partly specified) is 33-fold lower in GI50: 14.4 µM for the first, 0.43 µM for the second.

`COc1cc2c(c(OC)c1OC)-c1ccc(OC)c(=O)cc1[C@@H](NC(=O)c1ccccc1)CC2` was tested, and the GI50 was 28.1 µM and 13.4 µM.

For `COc1cc2c(c(OC)c1OC)-c1ccc(OC)c(=O)cc1[C@@H](NC(=O)c1ccccc1)CC2`, the TGI was 30 µM and > 100 µM.
With `COc1cccc2c1C(=O)c1c(O)c3c(c(O)c1C2=O)C[C@@](O)(C(C)=O)C[C@@H]3OC1OC(C)C(O)C(N)C1Br` (stereo partly specified) the TGI was 0.83 µM and 2.71 µM.

tested on: SF-295 CNS; test: growth of human tumour cells (NCI), 48 h

Going from `Cc1nc(N)sc1C(=O)/C=C\c1ccc2c(c1)OCO2` to `CC(=O)[O-].CCN(CC)c1ccc(C=NCCN=Cc2ccc(N(CC)CC)cc2[O-])c([O-])c1.[Mn+3]`, the TGI falls from over 100 µM to 71.8 µM.

`COc1cc(C(C)O)c[n+](CCc2c[nH]c3ccccc23)c1` (stereo unspecified) and `COc1ccccc1CCc1cc(OC)c(OC)c(OC)c1` cannot be ordered by TGI: over 100 µM for the first, over 100 µM for the second.

`CC1(C)SCc2nc3ncccc3n21` and `COC(=O)/C(=N\Nc1nnc(C)n1N)C(C#N)c1ccc(Cl)cc1` (stereo unspecified) cannot be ordered by TGI: over 100 µM for the first, over 100 µM for the second.

`Cn1c(=O)c(C(c2ccc([N+](=O)[O-])cc2)c2c(O)c3ccccc3n(C)c2=O)cc2ccccc21` (stereo unspecified) and `NC(N)=N/N=C(\c1nc2ccc([N+](=O)[O-])cc2[nH]c1=O)C(O)c1ccc([N+](=O)[O-])cc1` (stereo unspecified) cannot be ordered by TGI: over 100 µM for the first, over 100 µM for the second.

`Cc1cn(C2CC(O)C(CO)O2)c(=O)n2nnnc12` (stereo unspecified) and `O=C(O)C1OC(n2cc(F)c(=O)[nH]c2=O)CC1O` (stereo unspecified) cannot be ordered by TGI: over 100 µM for the first, over 100 µM for the second.

`COc1ccc(C(=O)C(C(=O)CCC(=O)Nc2cccc(Cl)c2)c2ccc(OC)cc2)cc1` (stereo unspecified) and `CCOC(=O)C1=C(C)N(NC(=O)Nc2ccccc2)C(=O)C1=P(c1ccccc1)(c1ccccc1)c1ccccc1` cannot be ordered by TGI: over 100 µM for the first, over 100 µM for the second.

`COc1cc(C=C2C(=O)NC(=O)NC2=O)cc(OC)c1OC` and `COc1cc2c(cc1OC)C(CC(=O)NN=C(C)C)NCC2` (stereo unspecified) cannot be ordered by TGI: over 100 µM for the first, over 100 µM for the second.

`Nn1c(=O)n(Cc2ccccc2)n(-c2ccccc2)c1=O` and `CC(C)C(Nc1c2ccccc2nc2ccccc12)C(=O)O` (stereo unspecified) cannot be ordered by TGI: over 100 µM for the first, over 100 µM for the second.

`Cc1ccc(C2=C(c3ccccc3)C(Br)(c3ccc(C)cc3)C(c3ccccc3)=C2c2ccc(C)cc2)cc1` and `CC(C)(C)c1ccc2c(c1)S(=O)(=O)Nc1ccccc1NS(=O)(=O)c1cc(C(C)(C)C)ccc1OCCOCCOCCO2` cannot be ordered by TGI: over 100 µM for the first, over 100 µM for the second.

`N#CCN1C(=O)c2cccc3cc([N+](=O)[O-])cc(c23)C1=O` and `CC(=O)/C(C)=N/NC(=O)c1ccccc1O` cannot be ordered by TGI: over 100 µM for the first, over 100 µM for the second.

`O=C1CCN2C(=O)CCN12` and `CC1CC[C@]2(C(=O)O)CCC3(C)C(=CC(=O)C4[C@@]5(C)CCC(=O)C(C)(C)C5CC[C@]43C)[C@@H]2[C@H]1C` (stereo partly specified) cannot be ordered by TGI: over 100 µM for the first, over 100 µM for the second.

`CS/C(N)=N\NC(=O)CCC(=O)Nc1ccccc1C(F)(F)F` showed a TGI of over 100 µM.

Going from `CC(=O)/C(C)=N/NC(=O)c1ccccc1O` to `CC(=O)[O-].CCN(CC)c1ccc(C=NCCN=Cc2ccc(N(CC)CC)cc2[O-])c([O-])c1.[Mn+3]`, the GI50 falls from over 100 µM to 27.7 µM.
